{"source": "patent US20240400561A1", "about": "“NOVEL SUBSTITUTED SULFONYLUREA COMPOUNDS AS INHIBITORS OF INTERLEUKIN-1 ACTIVITY” (Viva Star Biosciences (Suzhou) Co., Ltd., priority 2021, published 2024)"}
{"molecular_target": "T1, NLRP3 (Homo sapiens, UniProt Q96P20)", "T1 construct": "Seed THP-1 cells (5.56*10^5 cells/mL) containing 1.0 ug/mL LPS; endogenous in cells; host or cells: THP-1 cells", "T1 sequence (Q96P20 whole entry)": "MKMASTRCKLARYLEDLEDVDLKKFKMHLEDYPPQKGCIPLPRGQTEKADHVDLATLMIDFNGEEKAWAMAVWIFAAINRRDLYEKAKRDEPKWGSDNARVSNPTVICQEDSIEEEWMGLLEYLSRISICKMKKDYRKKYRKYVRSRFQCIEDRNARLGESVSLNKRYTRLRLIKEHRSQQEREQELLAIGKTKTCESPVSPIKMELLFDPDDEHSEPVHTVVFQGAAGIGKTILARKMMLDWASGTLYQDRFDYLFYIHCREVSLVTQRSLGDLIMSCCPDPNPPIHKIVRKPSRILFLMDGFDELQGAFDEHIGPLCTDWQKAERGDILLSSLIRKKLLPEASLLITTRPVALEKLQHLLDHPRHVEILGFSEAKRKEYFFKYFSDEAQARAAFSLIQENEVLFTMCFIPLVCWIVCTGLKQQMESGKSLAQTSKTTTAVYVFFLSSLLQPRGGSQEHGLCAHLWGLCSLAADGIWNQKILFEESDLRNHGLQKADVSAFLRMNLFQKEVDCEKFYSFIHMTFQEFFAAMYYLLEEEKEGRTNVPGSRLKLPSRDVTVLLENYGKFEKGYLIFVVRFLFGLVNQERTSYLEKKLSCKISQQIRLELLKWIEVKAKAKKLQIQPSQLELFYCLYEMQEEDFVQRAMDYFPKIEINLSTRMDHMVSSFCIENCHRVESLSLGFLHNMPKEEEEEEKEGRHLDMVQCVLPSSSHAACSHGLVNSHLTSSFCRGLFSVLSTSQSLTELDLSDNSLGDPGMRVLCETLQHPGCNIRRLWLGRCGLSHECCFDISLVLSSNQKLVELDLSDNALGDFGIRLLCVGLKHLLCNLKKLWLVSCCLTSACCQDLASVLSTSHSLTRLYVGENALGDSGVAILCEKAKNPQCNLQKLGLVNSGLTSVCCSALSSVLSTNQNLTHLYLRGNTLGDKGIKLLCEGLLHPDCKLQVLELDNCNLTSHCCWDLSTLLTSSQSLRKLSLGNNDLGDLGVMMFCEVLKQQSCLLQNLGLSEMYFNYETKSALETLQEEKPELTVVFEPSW", "assay": "THP-1 cell assay (LPS priming, nigericin), IL1β release by HTRF; called pyroptosis assay, THP IC50", "type": "cell-based", "settings": "NLRP3 inhibitory activity; THP-1 cells, 1.0 ug/mL LPS, compound 3 hrs, nigericin 5 uM 1 hr, IL1β in supernatant", "procedure": "The following method was used for compound screening. • 1. Seed THP-1 cells (5.56*10^5 cells/mL) containing 1.0 ug/mL LPS (SIGMA, L6529) in 45 uL RPMI 1640 medium (without FBS) into 384-well plate (Thermo Scientific, 164688). • 2. Add 5 uL compound (10 doses starting from 5 uM, 1:3 dilution) or vehicle (0.05% DMSO in medium) to the appropriate wells. • 3. Centrifuge the plates at 1000 rpm for 2 mins and incubate for 3 hrs at 37° C., 5% CO2. • 4. Add 5 uL nigericin (MEC, HY-100381) (final conc. 5 uM) to sample wells and positive control wells; add 5 uL RPMI 1640 medium to negative control wells. • 5. Centrifuge plates at 1000 rpm for 2 mins and incubate for 1 hr at 37° C., 5% CO2. • 6. At the end of the incubation period, centrifuge plates at 1000 rpm for 6 mins and transfer 8 uL supernatant into 384-well assay plates (PerkinElmer, 6008280). • 7. Add 8 ul RPMI 1640 medium into each well and spin down for 10 secs. • 8. Prepare the standard solutions and pre-mixed IL1β antibody solution of Human […] kits (PerkinElmer, 62HIL1BPEH) according to the instruction. • 9. Add 16 uL standard solutions into clear wells of 384-well assay plates. • 10. Add 4 uL pre-mixed IL1β antibody solution to all wells including sample wells, positive control wells, negative control wells and standard solutions wells. • 11. Seal the plates, spin down for 10 secs, incubation for overnight at RT and read on an HTRF® compatible reader (BMG LABTECH, PHERAstar FS). • 12. The concentrations of IL1β for treated wells are calculated by the standard curve. • 13. The IC50 data is fitted to a non-liner regression equation (log inhibitor vs. response—Variable slope four parameters)).", "units": {"IC50": "nM"}}
{"molecule": "CC(C)(O)c1csc(S(=O)(=O)NC(=O)Nc2c(-c3ccnc4c3ccn4C3CC3)ccc3c2CCC3)c1", "note": "[Example 49, N-((5-(1-cyclopropyl-1H-pyrrolo[2,3-b]pyridin-4-yl)-2,3-dihydro-1H-inden-4-yl)carbamoyl)-4-(2-hydroxypropan-2-yl)thiophene-2-sulfonamide]", "IC50": "30 to 300"}
{"molecule": "CC(C)n1ccc(S(=O)(=O)NC(=O)Nc2c(-c3ccnc4c3ccn4C)ccc3c2CCC3)n1", "note": "[Example 50, 1-isopropyl-N-((5-(1-methyl-1H-pyrrolo[2,3-b]pyridin-4-yl)-2,3-dihydro-1H-inden-4-yl)carbamoyl)-1H-pyrazole-3-sulfonamide]", "IC50": "300 to 1000"}
{"molecule": "CC(C)(O)c1csc(S(=O)(=O)NC(=O)Nc2c(-c3ccc4nccn4c3)ccc3c2CCC3)c1", "note": "[Example 51, 4-(2-hydroxypropan-2-yl)-N-((5-(imidazo[1,2-a]pyridin-6-yl)-2,3-dihydro-1H-inden-4-yl)carbamoyl)thiophene-2-sulfonamide]", "IC50": "≤ 30"}
{"molecule": "CC(C)(O)c1csc(S(=O)(=O)NC(=O)Nc2c(-c3ccc4ncnn4c3)ccc3c2CCC3)c1", "note": "[Example 52, N-((5-([1,2,4]triazolo[1,5-a]pyridin-6-yl)-2,3-dihydro-1H-inden-4-yl)carbamoyl)-4-(2-hydroxypropan-2-yl)thiophene-2-sulfonamide]", "IC50": "≤ 30"}
{"molecule": "CC(C)(O)c1csc(S(=O)(=O)NC(=O)Nc2c(-c3ccn4ncnc4c3)ccc3c2CCC3)c1", "note": "[Example 53, N-((5-([1,2,4]triazolo[1,5-a]pyridin-7-yl)-2,3-dihydro-1H-inden-4-yl)carbamoyl)-4-(2-hydroxypropan-2-yl)thiophene-2-sulfonamide]", "IC50": "≤ 30"}
{"molecule": "CC(C)(O)c1csc(S(=O)(=O)NC(=O)Nc2c(-c3ccn4cncc4c3)ccc3c2CCC3)c1", "note": "[Example 54, 4-(2-hydroxypropan-2-yl)-N-((5-(imidazo[1,5-a]pyridin-7-yl)-2,3-dihydro-1H-inden-4-yl)carbamoyl)thiophene-2-sulfonamide]", "IC50": "≤ 30"}
{"molecule": "CN1CCC(n2ccc3c(-c4ccc5c(c4NC(=O)NS(=O)(=O)c4cc(C(C)(C)O)cs4)CCC5)ccnc32)CC1", "note": "[Example 55, 4-(2-hydroxypropan-2-yl)-N-((5-(1-(1-methylpiperidin-4-yl)-1H-pyrrolo[2,3-b]pyridin-4-yl)-2,3-dihydro-1H-inden-4-yl)carbamoyl)thiophene-2-sulfonamide]", "IC50": "300 to 1000"}
{"molecule": "CC(C)(O)c1csc(S(=O)(=O)NC(=O)Nc2c(-c3ccnc4c3ccn4C3CCOCC3)ccc3c2CCC3)c1", "note": "[Example 56, 4-(2-hydroxypropan-2-yl)-N-((5-(1-(tetrahydro-2H-pyran-4-yl)-1H-pyrrolo[2,3-b]pyridin-4-yl)-2,3-dihydro-1H-inden-4-yl)carbamoyl)thiophene-2-sulfonamide]", "IC50": "30 to 300"}
{"molecule": "CN1CCC(n2ccc3c(-c4ccc5c(c4NC(=O)NS(=O)(=O)c4cc(C(C)(C)O)cs4)CCC5)ccnc32)C1", "note": "(centres unmarked) [Example 57, 4-(2-hydroxypropan-2-yl)-N-((5-(1-(1-methylpyrrolidin-3-yl)-1H-pyrrolo[2,3-b]pyridin-4-yl)-2,3-dihydro-1H-inden-4-yl)carbamoyl)thiophene-2-sulfonamide]", "IC50": "300 to 1000"}
{"molecule": "CC(C)(O)c1csc(S(=O)(=O)NC(=O)Nc2c(-c3ccnc4c3ccn4C3CCOC3)ccc3c2CCC3)c1", "note": "(centres unmarked) [Example 58, 4-(2-hydroxypropan-2-yl)-N-((5-(1-(tetrahydrofuran-3-yl)-1H-pyrrolo[2,3-b]pyridin-4-yl)-2,3-dihydro-1H-inden-4-yl)carbamoyl)thiophene-2-sulfonamide]", "IC50": "30 to 300"}
{"molecule": "CC(C)(O)c1csc(S(=O)(=O)NC(=O)Nc2c(-c3ccnc4c3ccn4C3COC3)ccc3c2CCC3)c1", "note": "[Example 59, 4-(2-hydroxypropan-2-yl)-N-((5-(1-(oxetan-3-yl)-1H-pyrrolo[2,3-b]pyridin-4-yl)-2,3-dihydro-1H-inden-4-yl)carbamoyl)thiophene-2-sulfonamide]", "IC50": "30 to 300"}
{"molecule": "CC(C)(O)c1csc(S(=O)(=O)NC(=O)Nc2c(-c3ccn4nccc4c3)ccc3c2CCC3)c1", "note": "[Example 60, 4-(2-hydroxypropan-2-yl)-N-((5-(pyrazolo[1,5-a]pyridin-5-yl)-2,3-dihydro-1H-inden-4-yl)carbamoyl)thiophene-2-sulfonamide]", "IC50": "≤ 30"}
{"molecule": "CC(C)(O)c1csc(S(=O)(=O)NC(=O)Nc2c(-c3ccc4nncn4c3)ccc3c2CCC3)c1", "note": "[Example 61]", "IC50": "300 to 1000"}
{"molecule": "CC(C)(O)c1csc(S(=O)(=O)NC(=O)Nc2c(-c3ccn4nncc4c3)ccc3c2CCC3)c1", "note": "[Example 62, N-((5-([1,2,3]triazolo[1,5-a]pyridin-5-yl)-2,3-dihydro-1H-inden-4-yl)carbamoyl)-4-(2-hydroxypropan-2-yl)thiophene-2-sulfonamide]", "IC50": "30 to 300"}
{"molecule": "CC(C)(O)c1csc(S(=O)(=O)NC(=O)Nc2c(-c3ccn4cnnc4c3)ccc3c2CCC3)c1", "note": "[Example 63, N-((5-([1,2,4]triazolo[4,3-a]pyridin-7-yl)-2,3-dihydro-1H-inden-4-yl)carbamoyl)-4-(2-hydroxypropan-2-yl)thiophene-2-sulfonamide]", "IC50": "≤ 30"}
{"molecule": "CC(C)(O)c1csc(S(=O)(=O)NC(=O)Nc2c(-c3cnc4ccnn4c3)ccc3c2CCC3)c1", "note": "[Example 64, 4-(2-hydroxypropan-2-yl)-N-((5-(pyrazolo[1,5-a]pyrimidin-6-yl)-2,3-dihydro-1H-inden-4-yl)carbamoyl)thiophene-2-sulfonamide]", "IC50": "1000 to 2000"}
{"molecule": "CC(C)(O)c1csc(S(=O)(=O)NC(=O)Nc2c(-c3ccc4nccn4c3)ccc3c2OCO3)c1", "note": "[Example 65, 4-(2-hydroxypropan-2-yl)-N-((5-(imidazo[1,2-a]pyridin-6-yl)benzo[d][1,3]dioxol-4-yl)carbamoyl)thiophene-2-sulfonamide]", "IC50": "30 to 300"}
{"molecule": "CC(C)(O)c1csc(S(=O)(=O)NC(=O)Nc2c(-c3ccn4ccnc4c3)ccc3c2OCO3)c1", "note": "[Example 66, 4-(2-hydroxypropan-2-yl)-N-((5-(imidazo[1,2-a]pyridin-7-yl)benzo[d][1,3]dioxol-4-yl)carbamoyl)thiophene-2-sulfonamide]", "IC50": "≤ 30"}
{"molecule": "CC(C)(O)c1csc(S(=O)(=O)NC(=O)Nc2c(-c3ccc4ccnn4c3)ccc3c2CCC3)c1", "note": "[Example 68, 4-(2-hydroxypropan-2-yl)-N-((5-(pyrazolo[1,5-a]pyridin-6-yl)-2,3-dihydro-1H-inden-4-yl)carbamoyl)thiophene-2-sulfonamide]", "IC50": "≤ 30"}
{"molecule": "Cc1cc2c(c(NC(=O)NS(=O)(=O)c3cc(C(C)(C)O)cs3)c1-c1ccn3cncc3c1)CCC2", "note": "[Example 69, 4-(2-hydroxypropan-2-yl)-N-((5-(imidazo[1,5-a]pyridin-7-yl)-6-methyl-2,3-dihydro-1H-inden-4-yl)carbamoyl)thiophene-2-sulfonamide]", "IC50": "≤ 30"}
{"molecule": "Cc1cc2c(c(NC(=O)NS(=O)(=O)c3cc(C(C)(C)O)cs3)c1-c1ccn3nccc3c1)CCC2", "note": "[Example 70, 4-(2-hydroxypropan-2-yl)-N-((6-methyl-5-(pyrazolo[1,5-a]pyridin-5-yl)-2,3-dihydro-1H-inden-4-yl)carbamoyl)thiophene-2-sulfonamide]", "IC50": "≤ 30"}
{"molecule": "CC(C)(O)c1csc(S(=O)(=O)NC(=O)Nc2c3c(cc(Cl)c2-c2ccn4cncc4c2)CCC3)c1", "note": "[Example 71, N-((6-chloro-5-(imidazo[1,5-a]pyridin-7-yl)-2,3-dihydro-1H-inden-4-yl)carbamoyl)-4-(2-hydroxypropan-2-yl)thiophene-2-sulfonamide]", "IC50": "≤ 30"}
{"molecule": "Cc1c(-c2ccc3c(c2NC(=O)NS(=O)(=O)c2cc(C(C)(C)O)cs2)CCC3)ccn2ccnc12", "note": "[Example 72, 4-(2-hydroxypropan-2-yl)-N-((5-(8-methylimidazo[1,2-a]pyridin-7-yl)-2,3-dihydro-1H-inden-4-yl)carbamoyl)thiophene-2-sulfonamide]", "IC50": "30 to 300"}
{"molecule": "Cc1c(-c2ccc3c(c2NC(=O)NS(=O)(=O)c2cc(C(C)(C)O)cs2)CCC3)ccn2cncc12", "note": "[Example 73, 4-(2-hydroxypropan-2-yl)-N-((5-(8-methylimidazo[1,5-a]pyridin-7-yl)-2,3-dihydro-1H-inden-4-yl)carbamoyl)thiophene-2-sulfonamide]", "IC50": "30 to 300"}
{"molecule": "Cc1cc2cc(-c3ccc4c(c3NC(=O)NS(=O)(=O)c3cc(C(C)(C)O)cs3)CCC4)ccn2n1", "note": "[Example 74, 4-(2-hydroxypropan-2-yl)-N-((5-(2-methylpyrazolo[1,5-a]pyridin-5-yl)-2,3-dihydro-1H-inden-4-yl)carbamoyl)thiophene-2-sulfonamide]", "IC50": "≤ 30"}
{"molecule": "Cc1cc2c(c(NC(=O)NS(=O)(=O)C3CC(OC4CC4)C3)c1-c1ccn3nccc3c1)CCC2", "note": "(centres unmarked) [Example 75, 3-cyclopropoxy-N-((6-methyl-5-(pyrazolo[1,5-a]pyridin-5-yl)-2,3-dihydro-1H-inden-4-yl)carbamoyl)cyclobutane-1-sulfonamide]", "IC50": "30 to 300"}
